Experimental data reported in ChEMBL document CHEMBL1201862, “PubChem BioAssay data set” (2004).
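The compound was tested at five concentrations on cells cultured in 96-well plates, with a 48-hour exposure period. Abbreviation: GI50, concentration required for 50% inhibition of growth.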 Active and inactive are the calls of the source. No stated cut-off is given here; in the data, active = GI50 up to about 1.1 µM and inactive = higher.

Legend:
Assay in all cases: NCI-60 cell line screen, 48 h
M19-MEL = system: M19-MEL
OVCAR-8 = system: OVCAR-8
XF498 = system: XF498
NCI-H460 = system: NCI-H460
SNB-78 = system: SNB-78
CAKI-1 = system: CAKI-1
SF-539 = system: SF-539
UO-31 = system: UO-31
M14 = system: M14
LOX IMVI = system: LOX IMVI
DMS-273 = system: DMS-273
UACC-62 = system: UACC-62
SW-620 = system: SW-620
OVCAR-4 = system: OVCAR-4
HL-60 = system: HL-60
KM12 = system: KM12
KM-20L2 = system: KM-20L2
NCI-H522 = system: NCI-H522
SK-MEL-28 = system: SK-MEL-28
ACHN = system: ACHN
SK-OV-3 = system: SK-OV-3
HOP-92 = system: HOP-92
HOP-62 = system: HOP-62
EKVX = system: EKVX
A549 = system: A549
HCT-15 = system: HCT-15
MOLT-4 = system: MOLT-4
HCT-116 = system: HCT-116
RXF 393 = system: RXF 393
IGROV-1 = system: IGROV-1
OVCAR-3 = system: OVCAR-3
SF-295 = system: SF-295
SNB-75 = system: SNB-75
SK-MEL-5 = system: SK-MEL-5
UACC-257 = system: UACC-257
U-251 = system: U-251
CCRF-CEM = system: CCRF-CEM
NCI-H23 = system: NCI-H23
RXF 631 = system: RXF 631
COLO 205 = system: COLO 205
SN12C = system: SN12C
DMS-114 = system: DMS-114
HCC 2998 = system: HCC 2998
RPMI-8226 = system: RPMI-8226
786-0 = system: 786-0
HT-29 = system: HT-29
LXFL 529 = system: LXFL 529
Malme-3M = system: Malme-3M
TK-10 = system: TK-10
DLD-1 = system: DLD-1
OVCAR-5 = system: OVCAR-5
K562 = system: K562
NCI-H226 = system: NCI-H226
A498 = system: A498
SF-268 = system: SF-268
SNB-19 = system: SNB-19
SK-MEL-2 = system: SK-MEL-2
SR = system: SR

## COC(=O)C1=Cc2c(OC)cc(OC)c(OC)c2[C@H](c2cc(OC)c(OC)cc2OC)C1C(=O)OC (stereo partly specified)
M19-MEL
  GI50: > 100 µM (inactive)
OVCAR-8
  GI50: > 100 µM (inactive)
XF498
  GI50: > 100 µM (inactive)
NCI-H460
  GI50: > 100 µM (inactive)
SNB-78
  GI50: 20.7 µM (inactive)
CAKI-1
  GI50: > 100 µM (inactive)
SF-539
  GI50: 54.7 µM (inactive)
UO-31
  GI50: > 100 µM (inactive)
M14
  GI50: > 100 µM (inactive)
LOX IMVI
  GI50: > 100 µM (inactive)
DMS-273
  GI50: 42.7 µM (inactive)
UACC-62
  GI50: > 100 µM (inactive)
SW-620
  GI50: > 100 µM (inactive)
OVCAR-4
  GI50: 99.5 µM (inactive)
HL-60
  GI50: 28.8 µM (inactive)
KM12
  GI50: > 100 µM (inactive)
KM-20L2
  GI50: > 100 µM (inactive)
NCI-H522
  GI50: > 100 µM (inactive)
SK-MEL-28
  GI50: > 100 µM (inactive)
ACHN
  GI50: > 100 µM (inactive)
SK-OV-3
  GI50: > 100 µM (inactive)
HOP-92
  GI50: > 100 µM (inactive)
HOP-62
  GI50: > 100 µM (inactive)
EKVX
  GI50: > 100 µM (inactive)
A549
  GI50: > 100 µM (inactive)
HCT-15
  GI50: > 100 µM
MOLT-4
  GI50: > 100 µM (inactive)
HCT-116
  GI50: > 100 µM (inactive)
RXF 393
  GI50: > 100 µM (inactive)
IGROV-1
  GI50: > 100 µM (inactive)
OVCAR-3
  GI50: > 100 µM (inactive)
SF-295
  GI50: 88.5 µM (inactive)
SNB-75
  GI50: 57.8 µM (inactive)
SK-MEL-5
  GI50: > 100 µM (inactive)
UACC-257
  GI50: > 10 µM (inactive)
U-251
  GI50: > 100 µM (inactive)
CCRF-CEM
  GI50: 64.7 µM (inactive)
NCI-H23
  GI50: > 100 µM (inactive)
RXF 631
  GI50: > 100 µM (inactive)
COLO 205
  GI50: > 100 µM (inactive)
SN12C
  GI50: > 100 µM (inactive)
DMS-114
  GI50: > 100 µM (inactive)
HCC 2998
  GI50: > 100 µM (inactive)
RPMI-8226
  GI50: > 100 µM (inactive)
786-0
  GI50: > 100 µM (inactive)
HT-29
  GI50: > 100 µM (inactive)
LXFL 529
  GI50: > 100 µM (inactive)
Malme-3M
  GI50: > 100 µM (inactive)
TK-10
  GI50: > 100 µM (inactive)
DLD-1
  GI50: > 100 µM (inactive)
OVCAR-5
  GI50: > 100 µM (inactive)
K562
  GI50: 20.1 µM (inactive)
NCI-H226
  GI50: > 100 µM (inactive)
A498
  GI50: > 100 µM (inactive)
SF-268
  GI50: > 100 µM (inactive)
SNB-19
  GI50: > 100 µM (inactive)

## NC(=O)c1cc([N+](=O)[O-])cc([N+](=O)[O-])c1 [NITROMIDE]
M19-MEL
  GI50: 22.4 µM (inactive)
OVCAR-8
  GI50: > 100 µM (inactive)
NCI-H460
  GI50: > 100 µM (inactive)
CAKI-1
  GI50: > 100 µM (inactive)
SF-539
  GI50: > 100 µM (inactive)
UO-31
  GI50: > 100 µM (inactive)
M14
  GI50: > 100 µM (inactive)
LOX IMVI
  GI50: > 100 µM (inactive)
DMS-273
  GI50: > 100 µM (inactive)
UACC-62
  GI50: 96.8 µM (inactive)
SW-620
  GI50: > 100 µM (inactive)
OVCAR-4
  GI50: > 100 µM (inactive)
HL-60
  GI50: 40.9 µM (inactive)
KM12
  GI50: > 100 µM (inactive)
KM-20L2
  GI50: > 100 µM (inactive)
NCI-H522
  GI50: > 100 µM (inactive)
SK-MEL-28
  GI50: > 100 µM (inactive)
ACHN
  GI50: > 100 µM (inactive)
SK-OV-3
  GI50: > 100 µM (inactive)
HOP-92
  GI50: > 100 µM (inactive)
HOP-62
  GI50: > 100 µM (inactive)
EKVX
  GI50: > 100 µM (inactive)
A549
  GI50: > 100 µM (inactive)
HCT-15
  GI50: > 100 µM
MOLT-4
  GI50: > 100 µM (inactive)
HCT-116
  GI50: > 100 µM (inactive)
RXF 393
  GI50: > 100 µM (inactive)
IGROV-1
  GI50: > 100 µM (inactive)
OVCAR-3
  GI50: > 100 µM (inactive)
SF-295
  GI50: > 100 µM (inactive)
SNB-75
  GI50: > 100 µM (inactive)
SK-MEL-5
  GI50: > 100 µM (inactive)
UACC-257
  GI50: > 100 µM (inactive)
U-251
  GI50: > 100 µM (inactive)
CCRF-CEM
  GI50: > 100 µM (inactive)
NCI-H23
  GI50: > 100 µM (inactive)
RXF 631
  GI50: > 100 µM (inactive)
COLO 205
  GI50: 30.3 µM (inactive)
SN12C
  GI50: > 100 µM (inactive)
DMS-114
  GI50: 38.5 µM (inactive)
RPMI-8226
  GI50: > 100 µM (inactive)
786-0
  GI50: > 100 µM (inactive)
HT-29
  GI50: > 100 µM (inactive)
SK-MEL-2
  GI50: > 100 µM (inactive)
LXFL 529
  GI50: > 100 µM (inactive)
Malme-3M
  GI50: 69.3 µM (inactive)
TK-10
  GI50: > 100 µM (inactive)
SR
  GI50: > 100 µM (inactive)
DLD-1
  GI50: > 100 µM (inactive)
OVCAR-5
  GI50: > 100 µM (inactive)
K562
  GI50: > 100 µM (inactive)
NCI-H226
  GI50: > 100 µM (inactive)
A498
  GI50: > 100 µM (inactive)
SF-268
  GI50: > 100 µM (inactive)
SNB-19
  GI50: > 100 µM (inactive)
